This is an account of results in patent publication US7887822B2, “Peptides for stimulating an immune response against melanoma” (Health Research, Inc., priority 2005, dated 2011).

Where no end group is shown, it is not given here.

In data set [1] the test system is mAb 763.74. In words: Inhibition by peptides of binding of biotinylated mAb 763.74 to HMW-MAA-bearing Colo38 melanoma cells. The following applies: for Inhibition of binding of mAb 763.74 to HMW-MAA-bearing melanoma cells: Colo38 cells, escalating peptide concentrations, FIG. 3; for IC50 for inhibition of mAb 763.74 binding: biotinylated mAb 763.74 incubated with peptide at 4° C. overnight, then Colo38 cells 1 h at 4° C., read-out: Dissociation constant (Kd), molar concentration of the peptide required to cause a 50% inhibition of binding of biotinylated mAb 763.74 to Colo38 cells. As to the method: FIG. 3 is a graphical depiction of dose-dependent inhibition by anti-id mAb MK2-23H3-derived peptide PMK2-23H3 of binding of mAb 763.74 to HMW-MAA-bearing Colo38 melanoma cells. Peptides PHMW.D2.7 (HMW-MAA-derived), PMK2-23H3 (anti-id mAb MK2-23H3-derived), and an irrelevant control peptide Pb2m (β2-microglobulin-derived) at increasing concentrations were incubated with biotinylated mAb 763.74 (0.5 μg/ml) and assayed as described in Example 2. Results of one of three representative experiments are shown.
PMK2-23H3, PMK2-23L1, and PHMW-MAA.D2.7 were synthesized by N.C. Wang, Hospital for Sick Children, Toronto, ON, Canada. A synthetic peptide derived from β2-microglobulin (Pb2m, KNGERIEKVEHS SEQ ID NO:4), used as a negative control, was purchased from University of Georgia Molecular Genetics Instrumentation Facility (Athens, Ga.). mAb 763.74 was purified from ascitic fluid by sequential ammonium sulphate and caprylic acid precipitation (Temponi, et al. (1989) Hybridoma. 8, 85-95). The purity and activity of mAb preparations were assessed by SDS-PAGE and by testing with the corresponding antigen in a binding assay, respectively. Biotinylation was performed using NHS-LC-biotin (Pierce, Rockford, Ill.) according to the manufacturer's instructions.)
Escalating concentrations of peptides were incubated with biotinylated mAb 763.74 ([…]) at 4° C. overnight in U-bottom 96-well plates. The mixture was then incubated with HMW-MAA-bearing melanoma cells Colo38 (10^5/well) for 1 h at 4° C. After three washes with 1% bovine serum albumin in phosphate buffered saline, an optimal amount of horseradish peroxidase-conjugated streptavidin was added. Reactions were then developed and visualized with the TMB substrate system (KPL, Gaithersburg, Md.). Reactions were reported as optical density (O.D.) measured with an ELISA reader. Percent inhibition was calculated by the formula: 100%×(O.D.irrelevant peptide−O.D.test peptide)/O.D.irrelevant peptide. Dissociation constant (Kd) was calculated as the molar concentration of the peptide required to cause a 50% inhibition of binding of biotinylated mAb 763.74 to HMW-MAA-bearing melanoma cells Colo38 (Temponi, et al. (1992) Cancer Res. 52, 2497-2503).

The test system of data set [2] is peptides PMK2-23H3, PHMW.D2.7 and anti-id mAb MK2-23. In words: Immunogenicity in BALB/c mice: reactivity of sera in peptide binding ELISA. The class given is in vivo. The following applies: peptide conjugated to KLH with Freund adjuvant; for Reactivity of sera from immunized mice with HMW-MAA-derived peptide PHMW.D2.7 / Reactivity of sera from immunized mice with peptide PMK2-23H3: s.c. day 0, 21, 42, sera day 7 and 28, ELISA. On the procedure: (§1) FIGS. 4A and 4B are graphical depictions of the immunogenicity of peptide PMK2-23H3 in BALB/c mice. Sera harvested before immunization (circle) and on days 7 (square) and 28 (triangle) after immunization from BALB/c mice immunized with anti-id mAb-derived peptide PMK2-23H3 were tested for their reactivity in ELISA with the immunizing peptide (closed symbols, left panel of FIG. 4A) and with HMW-MAA-derived peptide PHMW.D2.7 (open symbols, right panel of FIG. 4A). Sera harvested before immunization (circles) and on day 28 (triangles) were tested in ELISA (left panel in FIG. 4B) with HMW-MAA-transfected M14#5 cells (closed symbols) and with their mock-transfected counterparts (open symbols, left panel in FIG. 4B). Sera harvested on day 28 were tested by FACS analysis (right panel in FIG. 4B, open profiles) with HMW-MAA-transfected M14#5 cells (M14#5/HMW) and with their mock-transfected counterparts (M14#5/neo). Preimmune sera (filled profile) were used as controls.
Immunizations were given subcutaneously to 8-week-old female BALB/c mice (obtained from Taconic Farms, Germantown, N.Y.) (5 per group) on day 0, 21, and 42. Sera were harvested before immunization and on day 7 and 28. They were tested for reactivity with the immunizing peptide coated on 96-well plates (Temponi, et al. (1989) Hybridoma. 8, 85-95) and with HMW-MAA-bearing melanoma cells in ELISA and fluorescence-activated cell sorting (FACS) analysis using conventional techniques as previously described (Chen, et al. (1991) J. Immunol. 147, 1082-1090).
(ELISA stands for enzyme-linked immunosorbent assay.)

Data set [3] has as its system HMW-MAA-transfected M14 melanoma cells. In words: Immunogenicity in BALB/c mice: reactivity of sera with HMW-MAA-transfected and mock-transfected M14 melanoma cells in ELISA and FACS. The following applies: sera day 28; ELISA and FACS analysis. It is filed as in vivo. On the procedure: as §1, with “Sera harvested on day 28 were tested by FACS analysis (right panel in FIG. 4B, open profiles) with HMW-MAA-transfected M14#5 cells (M14#5/HMW) and with their mock-transfected counterparts (M14#5/neo). Preimmune sera (filled profile) were used as controls.” left out
Immunizations were given subcutaneously to 8-week-old female BALB/c mice (obtained from Taconic Farms, Germantown, N.Y.) (5 per group) on day 0, 21, and 42. […] They were tested for reactivity with the immunizing peptide coated on 96-well plates (Temponi, et al. (1989) Hybridoma. 8, 85-95) and with HMW-MAA-bearing melanoma cells in ELISA and fluorescence-activated cell sorting (FACS) analysis using conventional techniques as previously described (Chen, et al. (1991) J. Immunol. 147, 1082-1090).

Data set [4] is described as follows: Solubility of peptide, as noted for the peptide binding assays. The class given is physicochemical. On the procedure:
Peptide PMK2-23H3, which was based on the H3 loop of anti-id mAb MK2-23 encompassing the HMW-MAA-homologous amino acid sequence (FIG. 1) was analyzed for reactivity with the HMW-MAA-specific idiotypic mAb 763.74. […] The peptide SVEYYGSSLMQ (designated as PMK2-23L1), which was derived from the L1 loop of anti-id mAb MK2-23 encompassing the described HMW-MAA-homologous a.a. sequence, was also synthesized.

As to “ARSNYVGYHVRWYFD [PMK2-23H3, identical to a portion of the H3 loop of anti-id mAb MK2-23]”, in data set [1], the “Inhibition of binding of mAb 763.74 to HMW-MAA-bearing melanoma cells” value is reported as “inhibits the binding” and the IC50 for inhibition of mAb 763.74 binding was determined as 871 nM. For the same sequence, in data set [2], the “Reactivity of sera from immunized mice with HMW-MAA-derived peptide PHMW.D2.7” value is on record as “reacted” and the “Reactivity of sera from immunized mice with peptide PMK2-23H3” value is “reacted”. Besides, the “Reactivity of sera from immunized mice with anti-id mAb MK2-23” value in data set [2] (s.c., peptide binding assay) is given as “reacted”. In addition, in data set [3], the “Reactivity of sera from immunized mice with HMW-MAA-transfected M14 melanoma cells (M14.HMW-MAA)” value was “reacted” and the “Reactivity of sera from immunized mice with mock-transfected M14 cells (M14.neo)” value is reported as “did not react”.

With “KNGERIEKVEHS (human; Beta 2-microglobulin peptide) [Pb2m, reference compound]”, the “Inhibition of binding of mAb 763.74 to HMW-MAA-bearing melanoma cells” value in data set [1] is recorded as “no detectable effect”. In addition, in data set [2], the “Reactivity of sera from immunized mice with HMW-MAA-derived peptide PHMW.D2.7” value was “no detectable reactivity” and the “Reactivity of sera from immunized mice with peptide PMK2-23H3” value is on record as “no detectable reactivity”.

As to “IRSGDEVHYHVTAGPRW [PHMW-MAA.D2.7, IRSGDEVHYHV TAGPRW, identical to a region of HMW-MAA with partial homology to the H3 loop of MK2-23]”, the IC50 for inhibition of mAb 763.74 binding in data set [1] turned out to be 900 nM.

For the sequence SVEYYGSSLMQ [PMK2-23L1, SVEYYGSSLMQ], the Solubility entry in data set [4] was “low solubility”.
